According to PubChem BioAssay AID602191 (Broad Institute, 2012):
Activity calls are given as the source filed them.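 Rule for the calls: active = fitted curve reaches 40% activation at a concentration no higher than the top valid tested dose; inconclusive = flat fit between 30% and 70% activation, or poor fit; inactive = uptake decrease, flat fit within 30% of zero, the rest.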

molecular target: Scavenger receptor class B member 1 (Mus musculus) (UniProt Q61009); assay: enhancers of DiI-HDL lipid transfer via SR-BI – cell-based, ldlA[mSR-BI] CHO, DiI fluorescence, cherry-pick, dose response (AID 602191); conditions: ldlA[mSR-BI] CHO cells, 3 h, at 35 µM (top of the series);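 note: cell fluorescence from internalized DiI-labeled HDL after washing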;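 for AC40: potency of activators raising HDL uptake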;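 for activation (HDL uptake increase): 0% = median of DMSO wells and 100% = twice the DMSO signal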
Sequence (Q61009 whole entry, looked up): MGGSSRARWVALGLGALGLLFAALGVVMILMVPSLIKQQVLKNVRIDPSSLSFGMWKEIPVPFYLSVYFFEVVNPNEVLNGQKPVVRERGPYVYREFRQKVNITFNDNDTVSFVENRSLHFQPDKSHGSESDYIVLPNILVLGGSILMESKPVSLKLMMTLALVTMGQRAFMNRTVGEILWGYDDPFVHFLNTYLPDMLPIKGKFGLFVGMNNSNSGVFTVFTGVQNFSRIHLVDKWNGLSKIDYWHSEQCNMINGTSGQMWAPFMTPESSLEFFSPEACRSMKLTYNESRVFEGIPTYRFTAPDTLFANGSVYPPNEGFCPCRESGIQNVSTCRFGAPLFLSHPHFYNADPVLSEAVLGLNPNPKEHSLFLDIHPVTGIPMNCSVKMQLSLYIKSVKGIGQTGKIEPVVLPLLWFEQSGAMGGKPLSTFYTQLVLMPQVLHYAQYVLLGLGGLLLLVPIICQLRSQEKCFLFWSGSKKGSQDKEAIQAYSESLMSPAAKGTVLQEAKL

SMILES | activation (HDL uptake increase)
O=C1CCCC/C=C\C[C@H](CC(=O)N(CCO)Cc2ccccc2)C(=O)N2CCC[C@@H]2CO1 | -5.56% (inactive)
CC(C)(C)NC(=O)C[C@H]1C[C@H](C(=O)N2CCOCC2)[C@@]2(CCC3CCCC3)c3[nH]c4cc(-c5ccco5)ccc4c3CCN2C1=O | -1.73% (inactive)
CCCCN(C(=O)c1cc2c(s1)CCC2)c1c(N)n(CC(C)C)c(=O)[nH]c1=O | -6.82% (inactive)
Cc1nc(C2CCCCC2)c(-c2ccccc2)c(N2CCOC2=O)c1C | 1.15% (inactive)
C=CCn1c(SCC(=O)N(CC)C2CCS(=O)(=O)C2)nnc1-c1ccccc1 (stereo unspecified) | -7.41% (inactive)
CN1CCN(CCC(=O)N2c3ccccc3Sc3ccc(Cl)cc32)CC1 | -3.2% (inactive)
CCC(C)[C@@H](C(=O)NCC1CCC(C(=O)O)CC1)n1nnc2ccccc2c1=O (stereo partly specified) | -5.54% (inactive)
Cc1c(C(=O)N2CCC(C(N)=O)CC2)sc(N)c1C#N | -8.06% (inactive)
Cc1ccc(NC(=O)CSc2nc3nc(C)c(Br)cc3[nH]2)cc1F | -7.04% (inactive)
COc1cccc(CN2CCNC(=O)C2CC(=O)NCCCn2ccnc2)c1 (stereo unspecified) | 13% (inactive)
C=CC[C@@H](CC(=O)N[C@@H](CO)Cc1ccccc1)C(=O)N[C@@H](COC(=O)[C@@H](CC=C)Cc1ccc(F)cc1)Cc1c[nH]c2ccccc12 | -7.03% (inactive)
N#Cc1ccc(OCCOCCNC2CCCC2)cc1 | 13.4% (inactive)
Cc1cccn2c(CN[C@@H]3CCCC[C@H]3c3ccccc3)c(C(=O)N3CCOCC3)nc12 | -6.75% (inactive)
Cc1nn(-c2ccccc2)nc1CNC(=O)C(C)Cc1ccccc1 (stereo unspecified) | -12.5% (inactive)
O=C(NNC(=S)Nc1cccc2ccccc12)c1cccc(Br)c1 | -30.7% (inactive)
Cn1c(C(=O)N2CCC(C(N)=O)CC2)cc2cc(Cl)ccc21 | -7.74% (inactive)
O=C(NCc1cccs1)C1CCCN(C(=O)Nc2ccccc2)C1 (stereo unspecified) | 7.76% (inactive)
Cc1cccc(C)c1OCc1cc(C(=O)N2CCC(c3ccccc3)CC2)no1 | 2.24% (inactive)
CC(=O)c1cccc(NC(=O)COC(=O)Cn2cnc3ccccc32)c1 | 12.6% (inactive)
CCCCc1nc2cc(C(=O)NCc3ccccn3)ccc2o1 | -3.25% (inactive)
O=C1C2CCCN2C(=O)N1CCCCN1CCN(c2ccccc2)CC1 (stereo unspecified) | 10.3% (inactive)
NNC(=O)Cn1nc(Cc2ccccc2)n(N)c1=O | -4.95% (inactive)
O=C(CNC(=O)c1ccc(Cl)cc1Cl)OCC(=O)N1CCCC1 | -11.8% (inactive)
C=CCOC(=O)C1=C[C@H](c2ccc(C(F)(F)F)cc2)C[C@H](OCCCCO)O1 | -10.3% (inactive)
CN1CCN(C(=O)C2=C[C@@H](c3coc4ccccc4c3=O)C[C@@H](OCCCCO)O2)CC1 | -7.43% (inactive)
COc1ccccc1C(=O)NNC(=S)NC(=O)c1sc2ccccc2c1Cl | -16.5% (inactive)

SMILES | activation (HDL uptake increase)
Clc1ccc2nc(CN3CCCCCC3)cn2c1 | 0.923% (inactive)
O=C(NCCCCc1ccccc1)C1CC(c2cccc(F)c2)=NO1 (stereo unspecified) | -4.48% (inactive)
O=C1C2C3C=CC(C4CC34)C2C(=O)N1c1nccs1 (stereo unspecified) | -0.437% (inactive)
CC1CCc2c(C(=O)NCCN3CCOCC3)csc2C1 (stereo unspecified) | -15.7% (inactive)
CCOC(=O)N1CCN(C(=O)c2nn(C)c3c2CSc2ccccc2-3)CC1 | -12.2% (inactive)
CCCCC/C=C\C[C@H](O)/C=C/c1cccc(C[C@H](O)CCCCO)n1 | -14% (inactive)
Cc1cc(Cl)ccc1OCC(=O)OCC(=O)N1CCC(C(N)=O)CC1 | -16.7% (inactive)
NC(=O)C1CCN(C(=O)C2CC(=O)N(c3ccc4c(c3)OCCO4)C2)CC1 (stereo unspecified) | -4.66% (inactive)
COCCCNC(=O)CCSc1ccc(Cl)cc1 | -8.45% (inactive)
O=C(COC(=O)C1CCCCC1)Nc1cccc(Br)c1 | -5.26% (inactive)
O=C(CNC(=O)c1ccc(Cl)cc1)NCC(F)(F)F | -9.51% (inactive)
Cc1c(NC(=O)c2ccc(Br)o2)cccc1C(=O)O | 5.98% (inactive)
CC(C)CCNC(=O)c1onc(CSc2ccncc2)c1C(=O)NCCC(C)C | 3.64% (inactive)
COc1ccccc1Cc1nnnn1CC(=O)O | -7.37% (inactive)
COc1cc(C(CCN2CCCC(C)C2)c2c(OC)cc(OC)c3c(-c4ccccc4)cc(=O)oc23)cc(OC)c1OC (stereo unspecified) | -1.55% (inactive)
CC1(C)CC(=O)C2=C(C1)N(CC1CCCO1)C(=O)C2(O)C(F)(F)F (stereo unspecified) | 8.29% (inactive)
COc1ccc(S(=O)(=O)N2CCOCC2)cc1NC(=O)COC(=O)C1CC2CCCC(C1)C2=O (stereo unspecified) | -6.79% (inactive)
CN1OC[C@@H]2CN[C@H](c3cccc(-c4cc(Cl)cc(Cl)c4)c3)C[C@@H]21 | 5.62% (inactive)
O=C1N(C2CCCC2)C[C@@H]2C[C@@H](c3cn[nH]c3-c3ccc(Cl)cc3)N3CCC[C@@]123 | 0.818% (inactive)
Cc1cc(OCC(=O)OCC(=O)NC2CCCCC2C)ccc1Cl (stereo unspecified) | -2.13% (inactive)
O=C(NCCCc1ccccc1)c1ccc(CS(=O)Cc2ccc(Cl)cc2)o1 (stereo unspecified) | 5.61% (inactive)
Nc1nnc(SCC(=O)NN2C(=O)NC3(CCCCC3)C2=O)s1 | -7.59% (inactive)
CC(=O)Nc1ccc(OC(=O)c2ccco2)cc1 | -1.69% (inactive)
Cc1nn(CC(=O)OC(C)C(=O)Nc2ccccc2[N+](=O)[O-])c(C)c1[N+](=O)[O-] (stereo unspecified) | -9.77% (inactive)
CC1CCC(NC(=O)CCNS(=O)(=O)c2ccccc2)CC1 (stereo unspecified) | 10.2% (inactive)

Further lines, results first:

activation (HDL uptake increase) | SMILES
13% (inactive) | CCOC(=O)N1CCC(N2C(=O)c3ccccc3C2Nc2cc(OC)c(OC)c(OC)c2)CC1 (stereo unspecified)
-7.25% (inactive) | CC(C)CN(C(=O)CN1C(=O)C2CCCCC2C1=O)c1c(N)n(Cc2ccccc2)c(=O)[nH]c1=O (stereo unspecified)
-9.73% (inactive) | CCOC(=O)C1=C(COC(=O)[C@H](C)NS(=O)(=O)c2ccc(NC(C)=O)cc2)NC(=O)NC1C (stereo partly specified)
-14% (inactive) | COC(=O)[C@@]12CCCCN1[C@H](c1ccc(-c3ccc(C(C)=O)cc3)c(OC)c1)[C@@H]1C(=O)N(C)C(=O)[C@@H]12
-13.6% (inactive) | O=C(OCCc1cc2ccccc2c(=O)o1)c1ccc(F)cc1
-4.32% (inactive) | O=C(CN1CCN(S(=O)(=O)c2ccc(Cl)s2)CC1)NCc1ccc(Cl)cc1
6.17% (inactive) | Cc1ccc(N(CC(=O)NC2CCC(C)CC2)S(=O)(=O)c2cccnc2)cc1 (stereo unspecified)
8.76% (inactive) | Cc1ccc(N(C)C(=O)CN(C)S(=O)(=O)c2ccc3c(c2)n(C)c(=O)c(=O)n3C)cc1
-11.4% (inactive) | COc1cccc(N2CCN(c3ccc4nnc(CCC(=O)Nc5cc(C)ccn5)n4n3)CC2)c1
-18.2% (inactive) | COc1ccc2cnnc(SCC(=O)Nc3ccc(C(C)=O)cc3)c2c1OC
-8.5% (inactive) | COc1ccc(C(=O)NC(=O)CSc2nc3nc(C)cc(C)n3n2)cc1
-4.44% (inactive) | COc1ccc(N2C(=O)C(CC(=O)Nc3ccc(F)cc3)N(CCc3cccs3)C2=O)cc1 (stereo unspecified)
4.31% (inactive) | CSc1ccc(S(=O)(=O)NCC(=O)OCC(=O)N(C)Cc2ccccc2)cc1[N+](=O)[O-]
-4.2% (inactive) | COCCCNC(=O)CC(NS(=O)(=O)c1ccc(OC)cc1)c1ccc(OC)cc1 (stereo unspecified)
7.47% (inactive) | CCN1CCN(c2ccc(S(=O)(=O)N3CCCCC3)cc2NC(=O)c2cccc(C(F)(F)F)c2)CC1
8.83% (inactive) | CCOc1ccc(CNC(=O)CCS(=O)(=O)c2ccc3c(c2)oc(=O)n3C)cc1
1.11% (inactive) | COc1ccccc1N(CC(=O)Nc1cc(C)on1)S(=O)(=O)c1cccc(C(F)(F)F)c1
-10.5% (inactive) | COc1ccc(C(=O)NNS(=O)(=O)c2ccccc2)cc1OC
-13.1% (inactive) | COc1ccc2oc(C(=O)OCC(=O)Nc3ccc(C(=O)N(C)C)cc3)c(C)c2c1
-7.52% (inactive) | O=C1CCC(=O)N1c1ccc(S(=O)(=O)Nc2cccc(Br)c2)cc1
-22.7% (inactive) | CCc1nnc(NC(=O)c2nc(S(=O)(=O)Cc3ccc(C)cc3)ncc2Cl)s1
-12% (inactive) | O=S(=O)(c1ccccc1)N1CCN(Cc2c(O)ccc3ccccc23)CC1
-11.4% (inactive) | Cc1ccc(N2C(=O)C(Cc3ccc(O)cc3)NC2=S)cc1C (stereo unspecified)
11.6% (inactive) | CCN(CC(=O)Nc1c(F)cccc1F)C(=O)C1CCN(S(=O)(=O)c2ccc(F)cc2)CC1
-2.04% (inactive) | CN(C)CCN(C(=O)CN1C(=O)c2ccccc2C1=O)c1nc2cc3c(cc2s1)OCCO3
-9.27% (inactive) | CCOC(=O)[C@H]1[C@H]2COc3ccccc3[C@@H]2N2C(=O)CN(Cc3ccccc3)C(=O)[C@@]12C

same assay, conditions: ldlA[mSR-BI] CHO cells, DiI-HDL uptake fluorescence, 3 h

SMILES | AC40
NC(=O)c1ncn([C@@H]2O[C@H](CN=C3NS(=O)(=O)c4ccccc43)[C@@H](O)[C@H]2O)n1 | > 35 µM (inactive)
O=C(C[C@H]1C[C@H](C(=O)N2CCCCC2)[C@@]2(CCc3ccccc3)c3[nH]c4ccc(Cl)cc4c3CCN2C1=O)NCCc1ccccn1 | > 35 µM (inactive)

The next lines start with the values.

AC40 | SMILES
34.6 µM | C[C@H](CO)N1C[C@H](C)[C@@H](CN(C)S(=O)(=O)c2ccccc2)Oc2ccc(NC(=O)Nc3ccc(C(F)(F)F)cc3)cc2C1=O
31.1 µM | C[C@@H]1CN([C@@H](C)CO)C(=O)Cc2cc(NC(=O)Nc3ccc(C(F)(F)F)cc3)ccc2O[C@@H]1CN(C)S(=O)(=O)c1ccc(Cl)cc1
